Article PMC6522912, “Evaluation of the published kinase inhibitor set to identify multiple inhibitors of bacterial ATP-dependent mur ligases” (Journal of Enzyme Inhibition and Medicinal Chemistry, 2019)

target: E. coli MurF (Escherichia coli, UniProt P11880); test: biochemical; conditions: 0.25 h, Table S1, PKIS screening; read-out: RA [%] at 100 µM MurF
Protocol: (§1) Inhibition of the Mur ligases was determined using the malachite green assay, with slight modifications.
(§2) In all cases, the final concentration of DMSO was 5% (v/v). After incubation for 15 min at 37 °C, the enzyme reaction was terminated by addition of 100 µM Biomol green reagent, and the absorbance was measured at 650 nm after 5 min. All of the experiments were run in duplicate. Residual activities were calculated with respect to control assays without the tested compounds, but with the 5% DMSO carrier.
(§3) The published kinase inhibitor set compounds were evaluated for inhibition of MurC, D and F ligases from E. coli using the Malachite green assay, which detects orthophosphate generated during enzymatic reactions. To avoid non-specific inhibition due to aggregate formation, all of the compounds were tested in the presence of detergent (0.005% Triton-X114). The data are presented as the residual activities of these Mur ligases in the presence of 100 µM of each test compound (Supporting Information Table S1). […] Additionally, regarding the data of profiled compounds in large panels of human kinase assays[41]

Chain of E. coli MurF (P11880 whole entry): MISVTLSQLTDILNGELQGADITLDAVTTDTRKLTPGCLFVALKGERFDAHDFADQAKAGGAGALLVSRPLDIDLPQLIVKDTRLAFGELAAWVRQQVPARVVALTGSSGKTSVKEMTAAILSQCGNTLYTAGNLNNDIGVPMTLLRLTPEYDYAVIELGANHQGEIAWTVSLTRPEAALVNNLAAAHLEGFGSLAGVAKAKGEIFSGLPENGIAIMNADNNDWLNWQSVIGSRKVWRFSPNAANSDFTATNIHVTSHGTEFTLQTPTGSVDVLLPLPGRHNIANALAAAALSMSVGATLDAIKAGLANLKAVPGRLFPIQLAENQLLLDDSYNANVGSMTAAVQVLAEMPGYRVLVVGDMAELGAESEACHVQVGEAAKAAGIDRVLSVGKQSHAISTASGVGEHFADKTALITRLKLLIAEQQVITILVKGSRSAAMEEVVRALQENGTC

Structure (SMILES) | remaining activity at 100 µM
NS(=O)(=O)c1cccc(N/C=C2\C(=O)Nc3ccccc32)c1 [GW275616X] | 83%
CCCN1CCC(Oc2cc(Nc3nc(Nc4cccc(F)c4C(N)=O)c4cc[nH]c4n3)c(OC)cc2Cl)CC1 [GSK1713088A] | 85%
O=C1Nc2ccccc2/C1=C/Nc1ccc2[nH]c(=O)[nH]c2c1 [GW284408X] | 86%
CC1=C(C(=O)Nc2ccc3[nH]nc(C)c3c2)C(c2ccc(C(F)(F)F)cc2)CC(=O)N1 (centres unmarked) [GSK466314A] | 79%
CCc1ccc(Oc2nccc(-c3c(-c4ccc(F)cc4)ncn3C3CCNCC3)n2)cc1 [SB-242719] | 80%
CN(c1ccc(NC(=O)Nc2c(Cl)cccc2Cl)cc1)c1ccnc(Nc2cccc(CS(C)(=O)=O)c2)n1 [GW809897X] | 51%
NS(=O)(=O)c1ccc(N/N=C2\C(=O)Nc3ccc(-c4cnco4)cc32)cc1 [GW276655X] | 22%
CCS(=O)(=O)c1ccc(OC)c(Nc2ncc(-c3cccc(C(C)=O)c3)o2)c1 [GW621431X] | 73%
CN(C)c1cc2c(Nc3ccc4nc(Cc5ccccc5)[nH]c4c3)ncnc2cn1 [GW301888X] | 75%
O=C1Nc2ccc(I)cc2C1=Cc1cc(Br)c(O)c(Br)c1 [GW305074X] | 78%
FC(F)(F)c1ccc(-c2nn3ncccc3c2-c2ccnc(Nc3ccc4c(c3)OCCO4)n2)cc1 [GW828525X] | 47%
COc1ccc(-c2cc3c(N)ncnc3o2)cc1 [GW642138X] | 81%
CS(=O)(=O)CCNCc1coc(-c2ccc3ncnc(Nc4ccc(OCc5ccccc5)cc4)c3c2)c1 [GW566221B] | 82%
COc1ccc(-c2coc3ncnc(N)c23)cc1 [GW642125X] | 85%
Cc1cc(O)cc(C)c1/C=C/c1cncc(C(N)=O)c1 [GW435821X] | 75%
COc1cc2ncnc(Nc3ccc4c(cnn4Cc4ccccc4)c3)c2cc1OC [GW282449A] | 56%
Fc1cccc(COc2ccc(Nc3ncncc3C#Cc3ccccc3)cc2Cl)c1 [GW651576X] | 91%
Nc1nc(-c2ccccn2)c(-c2ccc3ncccc3n2)s1 [GW693481X] | 94%
CCOc1ccc2c(-c3ccnc(Nc4cc(OC)cc(C(F)(F)F)c4)n3)cnn2n1 [GW807982X] | 50%

same assay, conditions: Table S1, PKIS screening

Structure (SMILES) | RA [%] at 100 µM MurF
Nc1nccc(-c2c(-c3ccc(F)cc3)ncn2C2CCNCC2)n1 [SB-220025-A] | 96%
CCn1c(-c2nonc2N)nc2ccccc21 [GW549034X] | 93%
NC(=O)c1ccc(-c2nc(-c3ccc4c(c3)OCO4)c(-c3ccccn3)[nH]2)cc1 [SB-431542-A] | 100%

target: E. coli MurD (Escherichia coli, UniProt P14900); test: biochemical; conditions: not given
Protocol: as §1, §2
The published kinase inhibitor set compounds were evaluated for inhibition of MurC, D and F ligases from E. coli using the Malachite green assay, which detects orthophosphate generated during enzymatic reactions. To avoid non-specific inhibition due to aggregate formation, all of the compounds were tested in the presence of detergent (0.005% Triton-X114). The data are presented as the residual activities of these Mur ligases in the presence of 100 µM of each test compound (Supporting Information Table S1).

Chain of E. coli MurD (P14900 whole entry): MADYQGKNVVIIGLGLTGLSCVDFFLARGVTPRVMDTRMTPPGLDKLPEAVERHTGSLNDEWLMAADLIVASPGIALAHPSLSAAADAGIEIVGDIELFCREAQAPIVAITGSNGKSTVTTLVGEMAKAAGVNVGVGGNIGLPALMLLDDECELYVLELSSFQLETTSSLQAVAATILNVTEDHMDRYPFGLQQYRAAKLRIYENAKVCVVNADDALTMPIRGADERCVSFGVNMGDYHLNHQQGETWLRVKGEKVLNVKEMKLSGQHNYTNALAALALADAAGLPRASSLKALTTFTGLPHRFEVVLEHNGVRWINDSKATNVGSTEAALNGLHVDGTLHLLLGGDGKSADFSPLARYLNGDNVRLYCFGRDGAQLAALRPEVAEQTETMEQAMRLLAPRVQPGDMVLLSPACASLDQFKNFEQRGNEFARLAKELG

Structure (SMILES) | RA [%] at 100 µM MurD
Nc1nccc(-c2c(-c3ccc(F)cc3)ncn2C2CCNCC2)n1 [SB-220025-A] | 99
NC(=O)c1ccc(-c2nc(-c3ccc4c(c3)OCO4)c(-c3ccccn3)[nH]2)cc1 [SB-431542-A] | 90

same assay, conditions: 0.25 h, Table S1, PKIS screening; read-out: RA [%] at 100 µM MurD

Structure (SMILES) | remaining activity at 100 µM
CCn1c(-c2nonc2N)nc2ccccc21 [GW549034X] | 100%
NS(=O)(=O)c1cccc(N/C=C2\C(=O)Nc3ccccc32)c1 [GW275616X] | 88%
CCCN1CCC(Oc2cc(Nc3nc(Nc4cccc(F)c4C(N)=O)c4cc[nH]c4n3)c(OC)cc2Cl)CC1 [GSK1713088A] | 54%
O=C1Nc2ccccc2/C1=C/Nc1ccc2[nH]c(=O)[nH]c2c1 [GW284408X] | 86%
CC1=C(C(=O)Nc2ccc3[nH]nc(C)c3c2)C(c2ccc(C(F)(F)F)cc2)CC(=O)N1 (centres unmarked) [GSK466314A] | 100%
CCc1ccc(Oc2nccc(-c3c(-c4ccc(F)cc4)ncn3C3CCNCC3)n2)cc1 [SB-242719] | 87%
CN(c1ccc(NC(=O)Nc2c(Cl)cccc2Cl)cc1)c1ccnc(Nc2cccc(CS(C)(=O)=O)c2)n1 [GW809897X] | 55%
NS(=O)(=O)c1ccc(N/N=C2\C(=O)Nc3ccc(-c4cnco4)cc32)cc1 [GW276655X] | 73%
CCS(=O)(=O)c1ccc(OC)c(Nc2ncc(-c3cccc(C(C)=O)c3)o2)c1 [GW621431X] | 93%
CN(C)c1cc2c(Nc3ccc4nc(Cc5ccccc5)[nH]c4c3)ncnc2cn1 [GW301888X] | 80%
O=C1Nc2ccc(I)cc2C1=Cc1cc(Br)c(O)c(Br)c1 [GW305074X] | 92%
FC(F)(F)c1ccc(-c2nn3ncccc3c2-c2ccnc(Nc3ccc4c(c3)OCCO4)n2)cc1 [GW828525X] | 90%
COc1ccc(-c2cc3c(N)ncnc3o2)cc1 [GW642138X] | 93%
CS(=O)(=O)CCNCc1coc(-c2ccc3ncnc(Nc4ccc(OCc5ccccc5)cc4)c3c2)c1 [GW566221B] | 69%
COc1ccc(-c2coc3ncnc(N)c23)cc1 [GW642125X] | 83%
Cc1cc(O)cc(C)c1/C=C/c1cncc(C(N)=O)c1 [GW435821X] | 89%
COc1cc2ncnc(Nc3ccc4c(cnn4Cc4ccccc4)c3)c2cc1OC [GW282449A] | 62%
Fc1cccc(COc2ccc(Nc3ncncc3C#Cc3ccccc3)cc2Cl)c1 [GW651576X] | 43%
Nc1nc(-c2ccccn2)c(-c2ccc3ncccc3n2)s1 [GW693481X] | 88%
CCOc1ccc2c(-c3ccnc(Nc4cc(OC)cc(C(F)(F)F)c4)n3)cnn2n1 [GW807982X] | 78%

same assay, conditions: printed in the RA cell of Table S1; read-out: IC50 MurD

Structure (SMILES) | IC50
Fc1cccc(COc2ccc(Nc3ncncc3C#Cc3ccccc3)cc2Cl)c1 [GW651576X] | 90 µM

target: E. coli MurC (Escherichia coli, UniProt P17952); test: Malachite green inhibition assay, MurC; type: biochemical; conditions: 0.25 h, Table S1, PKIS screening; read-out: RA [%] at 100 µM MurC
Protocol: as §1, §2, §3

Chain of E. coli MurC (P17952 whole entry): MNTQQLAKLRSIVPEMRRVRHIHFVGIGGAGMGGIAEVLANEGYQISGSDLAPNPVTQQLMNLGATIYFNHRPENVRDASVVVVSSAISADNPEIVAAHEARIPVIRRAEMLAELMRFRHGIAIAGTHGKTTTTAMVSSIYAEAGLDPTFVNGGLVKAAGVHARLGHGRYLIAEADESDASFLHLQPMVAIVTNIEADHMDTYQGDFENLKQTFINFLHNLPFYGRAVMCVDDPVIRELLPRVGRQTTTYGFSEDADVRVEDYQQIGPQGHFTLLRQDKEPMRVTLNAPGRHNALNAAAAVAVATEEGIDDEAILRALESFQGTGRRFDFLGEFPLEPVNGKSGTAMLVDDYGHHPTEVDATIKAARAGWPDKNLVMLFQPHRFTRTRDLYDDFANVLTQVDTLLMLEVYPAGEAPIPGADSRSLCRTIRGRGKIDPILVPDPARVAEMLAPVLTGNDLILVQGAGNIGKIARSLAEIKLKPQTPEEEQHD

Structure (SMILES) | remaining activity at 100 µM
NS(=O)(=O)c1cccc(N/C=C2\C(=O)Nc3ccccc32)c1 [GW275616X] | 84%
CCCN1CCC(Oc2cc(Nc3nc(Nc4cccc(F)c4C(N)=O)c4cc[nH]c4n3)c(OC)cc2Cl)CC1 [GSK1713088A] | 59%
O=C1Nc2ccccc2/C1=C/Nc1ccc2[nH]c(=O)[nH]c2c1 [GW284408X] | 105%
CC1=C(C(=O)Nc2ccc3[nH]nc(C)c3c2)C(c2ccc(C(F)(F)F)cc2)CC(=O)N1 (centres unmarked) [GSK466314A] | 79%
CN(c1ccc(NC(=O)Nc2c(Cl)cccc2Cl)cc1)c1ccnc(Nc2cccc(CS(C)(=O)=O)c2)n1 [GW809897X] | 26%
NS(=O)(=O)c1ccc(N/N=C2\C(=O)Nc3ccc(-c4cnco4)cc32)cc1 [GW276655X] | 84%
CCS(=O)(=O)c1ccc(OC)c(Nc2ncc(-c3cccc(C(C)=O)c3)o2)c1 [GW621431X] | 68%
CN(C)c1cc2c(Nc3ccc4nc(Cc5ccccc5)[nH]c4c3)ncnc2cn1 [GW301888X] | 83%
O=C1Nc2ccc(I)cc2C1=Cc1cc(Br)c(O)c(Br)c1 [GW305074X] | 100%
COc1ccc(-c2cc3c(N)ncnc3o2)cc1 [GW642138X] | 74%
CS(=O)(=O)CCNCc1coc(-c2ccc3ncnc(Nc4ccc(OCc5ccccc5)cc4)c3c2)c1 [GW566221B] | 69%
COc1ccc(-c2coc3ncnc(N)c23)cc1 [GW642125X] | 100%
Cc1cc(O)cc(C)c1/C=C/c1cncc(C(N)=O)c1 [GW435821X] | 89%
COc1cc2ncnc(Nc3ccc4c(cnn4Cc4ccccc4)c3)c2cc1OC [GW282449A] | 53%
Fc1cccc(COc2ccc(Nc3ncncc3C#Cc3ccccc3)cc2Cl)c1 [GW651576X] | 44%
Nc1nc(-c2ccccn2)c(-c2ccc3ncccc3n2)s1 [GW693481X] | 99%
CCOc1ccc2c(-c3ccnc(Nc4cc(OC)cc(C(F)(F)F)c4)n3)cnn2n1 [GW807982X] | 55%

same assay, conditions: 0.25 h, read-out: RA [%] at 100 µM MurC, Table S1, PKIS screening

Structure (SMILES) | remaining activity at 100 µM
CCc1ccc(Oc2nccc(-c3c(-c4ccc(F)cc4)ncn3C3CCNCC3)n2)cc1 [SB-242719] | 51%
FC(F)(F)c1ccc(-c2nn3ncccc3c2-c2ccnc(Nc3ccc4c(c3)OCCO4)n2)cc1 [GW828525X] | 21%

same assay, conditions: Table S1, PKIS screening

Structure (SMILES) | RA [%] at 100 µM MurC
Nc1nccc(-c2c(-c3ccc(F)cc3)ncn2C2CCNCC2)n1 [SB-220025-A] | 98%
CCn1c(-c2nonc2N)nc2ccccc21 [GW549034X] | 70%
NC(=O)c1ccc(-c2nc(-c3ccc4c(c3)OCO4)c(-c3ccccn3)[nH]2)cc1 [SB-431542-A] | 59%

same assay, conditions: printed in the RA cell of Table S1; read-out: IC50 MurC

Structure (SMILES) | IC50
Fc1cccc(COc2ccc(Nc3ncncc3C#Cc3ccccc3)cc2Cl)c1 [GW651576X] | 120 µM
